# Test results as given in patent US20250171404A1, “PCNA INHIBITORS AND USES THEREOF” (CITY OF HOPE, priority 2022, published 2025).
# Legend:
# [1] = target: T1, PCNA interaction with RPB1 (Homo sapiens, UniProt P12004); assay: PCNA interaction with RPB1 (immunoprecipitation, western blotting); format: cell-based; details: SK-N-AS
# T1 construct: expressed in transfected cells; host or cells: SK-N-AS (FLAG-RPB1 exogenous; PCNA endogenous)
# Description: FIGS. 5A-5E. Modulation of PCNA interaction with RNA polymerase II. FIG. 5A: Chromatin-bound (CB) proteins were fractioned from HEK293T cells expressing FLAG-tagged PCNA after the cells were treated with or without 500 nM AOH1996. Proteins in complex with FLAG-PCNA were immune-precipitated and analyzed by mass spectrometry. Shown are numbers of proteins whose abundances were altered (grey) or unaltered (black) by more than 2-fold by AOH1996 treatment. FIG. 5B: SK-N-AS cells exogenously expressing a FLAG-tagged RPB1 gene were fractioned before and after being treated with 500 nM AOH1996 overnight. PCNA in complex with chromatin-bound (CB) FLAG-RBP1 were analyzed by western blotting. FIG. 5C: Human SK-N-AS cells were treated with UV in the presence or absence of AOH1996 (AOH) or R9-caPep (caPep). Whole cell extracts were analyzed by western blotting. FIG. 5D: Cells exogenously expressing FLAG-tagged wildtype RPB1 or FLAG-tagged APIM-mutant RPB1 gene were fractioned. PCNA in complex with chromatin-bound (CB) FLAG-RBP1 were analyzed by western blotting. FIG. 5E: HEK293T cells were transiently transfected with a FLAG-tagged wildtype RPB1 (APIM WT) gene or mutant RPB1 gene (APIM mutant). The intracellular MCM7 and RBP1 (both the hypo-phosphorylated RNAPIIa and hyper-phosphorylated RNAPIIo forms) were analyzed by western blot after cells were treated by the indicated agents and/or UV.
# Modulating PCNA interaction with transcription machinery.
# Cell fractionation and immunoprecipitation. Cells were fractionated as previously described (Li et al., 2018). Briefly, intact nuclei isolated following osmotic lysis were homogenized using a 21 G needle. Chromatin was pelleted by centrifugation and incubated overnight at 4° C. with benzonase in two volumes of nuclease buffer (20 mM HEPES pH 7.5, 1.5 mM MgCl2, 1 mM EDTA, 150 mM KCl, 10% glycerol, 0.5 U μl-1 benzonase). The resulting supernatant was collected as the CB fraction. Alternatively, we sequentially incubated the chromatin pellet with RNase A and benzonase and collected the supernatants after each digestion as the CB:RNA+ and CB:RNA− fractions, respectively (Li et al., 2018).
# [2] = system: SK-N-DZ neuroblastoma cells; assay: Clonogenic assay with cisplatin; format: cell-based, human; details: 500 nM AOH1996, 18 hours
# Description: FIGS. 3A-3D. Therapeutic properties of AOH1996. FIG. 3A: Normal cells (7SM0032) or cancer cells (SH-SY5Y and SK-N-BE(2)c) cells were fixed, stained with PI, and analyzed by flow cytometry following treatment with 500 nM AOH1996 for the indicated time. FIG. 3B: SK-N-DZ neuroblastoma cells and nonmalignant 7SM0032 stem cells were incubated with 500 nM AOH1996 for 24 h. Then, after being fixed on slides, cell apoptosis were analyzed by a TUNEL assay. Left: TMR fluorophore attached to the free ends of DNA indicates cells undergoing apoptosis. DAPI stained nuclei also shown. Right: Average abundance ±S.D. of apoptotic 7SM0032 (black histogram) and SK-N-DZ (grey histogram) cells relative to the total number of cells are shown in 5 randomly selected fields. FIG. 3C: Human SK-N-DZ neuroblastoma cells were treated with or without the indicated concentrations of cisplatin in the absence or presence of 500 nM of AOH1996 for 18 hours. […] The relative number of colonies determined in triplicates for each treatment condition were averaged and graphed ±SDs (*, P<0.01). […] Cell growth was measured as the percentage of cell confluence by imaging every 6 h for a total of 48 h.
# Clonogenic Assay. […] The colonies were stained with 0.5% crystal violet and counted. Synergy between AOH1996 and cisplatin was evaluated using combination indices (Cl) based on the Bliss independence model [C]=(EA+EB−EA*EB)/EAB] […]
smiles,measurement,setting,value
"COc1cccc(Oc2ccccc2NC(=O)CNC(=O)c2cccc3ccccc23)c1 [AOH1996, N-(2-((2-(3-methoxyphenoxy)phenyl)amino)-2-oxoethyl)-1-naphthamide]",PCNA interaction with RPB1,[1]; chromatin-bound,enhanced interaction between PCNA and RPB1
same,RPB1 levels,[1]; whole cell extracts,depleted RPB1 in cancer cells
same,sensitivity to cisplatin (colony formation),[2],"increased the sensitivity of cancer cells to genotoxic agents, including cisplatin"
